Results reported in PubChem BioAssay (NCI).
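Step 1: Grow cells in 96-well plates. Step 2: Expose to compound for 48 hours at 5 concentrations. Step 3: Interpolate endpoints linearly; if unreached, use highest concentration. GI50 = concentration required for 50% inhibition of growth. TGI: concentration producing complete growth inhibition.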

Key:
Assay in all cases: NCI-60 cell line screen, 48 h
[1] = test system: CCRF-CEM leukemia
[2] = test system: DU-145 prostate
[3] = test system: HCC-2998 colon
[4] = test system: IGROV1 ovarian
[5] = test system: M14 melanoma
[6] = test system: MALME-3M melanoma
[7] = test system: MOLT-4 leukemia
[8] = test system: SF-295 CNS
[9] = test system: KM12 colon
[10] = test system: SK-OV-3 ovarian

Compound | TGI [1] [µM] | TGI [2] [µM] | TGI [3] [µM] | TGI [4] [µM] | TGI [5] [µM] | TGI [6] [µM] | TGI [7] [µM] | TGI [8] [µM] | GI50 [1] [µM] | GI50 [2] [µM] | GI50 [3] [µM] | GI50 [4] [µM] | GI50 [9] [µM] | TGI [9] [µM] | GI50 [7] [µM] | GI50 [8] [µM] | GI50 [10] [µM] | TGI [10] [µM] | GI50 [6] [µM] | GI50 [5] [µM]
O=C1NC(=O)[C@H]2C3C=CC([C@@H]12)[C@@H]1C(=O)NC(=O)[C@H]31 | > 100 | > 100 | > 100 | > 100 | > 100 | > 100 | > 100 | > 100 |  |  |  |  |  |  |  |  |  |  |  | 
CC(=O)O[C@H]1C(=O)[C@@]2(C)[C@H]([C@H](OC(=O)c3ccccc3)[C@]3(O)C[C@H](OC(=O)[C@H](OC(=O)CCC(=O)OC4CCC(S/N=C(N)/N=C(\N)N(C)C)CC4)[C@@H](NC(=O)c4ccccc4)c4ccccc4)C(C)=C1C3(C)C)[C@]1(OC(C)=O)CO[C@@H]1C[C@@H]2O (stereo not given in full) | > 50 | > 50 | 0.727 | > 50 |  |  | > 50 | 0.0818 | 0.0155 | 0.0135 | 0.0147 | 0.113 | 0.0106 | > 50 | 0.0154 | 0.0116 | 0.0144 | > 50 |  | 
CCOC(=O)CCc1c(C)c2ccc(O)cc2oc1=O | > 100 | > 100 | > 100 | > 100 | > 100 | > 100 | > 100 | > 100 |  |  |  |  |  |  |  |  |  |  |  | 
Fc1ccc(Nc2ccc3cc(OCCCN4CCOCC4)ccc3n2)cc1F | > 100 | > 100 | 4.42 | > 100 |  | 7.74 | > 100 | 4.3 | 7.93 | 6.85 | 2.22 | 10.9 | 2.06 | 5.48 | 3.45 | 1.89 | 8.24 | > 100 | 2.25 | 
CCCN1C(=O)/C(=C/c2ccc(O)cc2)SC1=Nc1ccccc1 | > 100 | 40.8 | 47.4 | > 100 | > 100 |  | > 100 | 68.7 | > 100 | 17.4 | 22.9 | 38 | 19.9 | 55.3 | > 100 | 27.9 | 18 | 40.8 |  | 48.7
CCCCCCCCO/N=C\c1c2c(O)c3c(O)c(C)c4c(c3c1O)C(=O)C(C)(O/C=C\C(OC)C(C)C(OC(C)=O)C(C)C(O)C(C)C(O)C(C)/C=C\C=C(\C)C(=O)N2)O4 (stereo not given) | 9.82 | 6.93 | 7.03 |  | 5.4 |  |  | 2.56 | 1.95 | 1.8 | 2.05 |  | 1.67 | 6.36 |  | 0.953 | 1.86 | 6.68 |  | 1.57
COc1cc(/C=C2\C[C@H]3[C@@H]4CC=C5C[C@@H](OC(C)=O)CC[C@]5(C)[C@H]4CC[C@]3(C)[C@H]2OC(C)=O)ccc1OCCCn1ccnc1 | 40.9 | 18.7 | 17.7 | > 50 | 16.6 |  | > 50 | 12.4 | 11.3 | 9.14 | 9.47 | 16.8 | 8.31 | 18.1 | 17.1 | 4.77 |  |  |  | 8.85
N#C/C(=C\c1ccc(Cl)cc1)n1nnc2cc(F)c(F)cc21 | > 100 | 3.11 | 3.29 | 4.46 | 4.39 | 5.34 | > 100 | 5.53 | 2.01 | 1.69 | 1.74 | 1.97 | 1.95 | 4.29 | 2.65 | 2.26 |  |  | 2.06 | 1.9
CCC[CH2][Sn]([CH2]CCC)([O]C(=O)c1cccc(F)c1F)[O][Sn]([CH2]CCC)([CH2]CCC)[O]C(=O)c1cccc(F)c1F |  | 1.63 | 1.92 | 2.15 | 0.891 | 0.284 | 0.821 | 2.19 |  | 0.457 | 0.617 | 0.781 | 0.857 | 2.22 | 0.084 | 0.919 | 0.915 | 2.23 | 0.118 | 0.274
O=C(Nc1cccc(-c2nc3ccccc3[nH]2)c1)c1cccc(NC(=O)c2ccco2)c1 | 16.1 | 3.15 | 21.5 | 17 |  | 4.34 | 12 | 4.41 | 3.99 | 1.76 | 10 | 5.34 | 2.27 | 5.61 | 2.96 | 1.92 | 2.35 | 4.42 | 2.11 | 
CCC(=O)Nc1ccc2c(c1)CN1C(=O)c3ccccc3C1=N2 |  | > 100 | > 100 | > 100 | > 100 | > 100 | > 100 | > 100 |  | > 100 | > 100 | > 100 | > 100 | > 100 | > 100 | > 100 | > 100 | > 100 | > 100 | > 100
